Source: patent publication US6777426B2, “Imidazole and imidazoline derivatives and uses thereof” (Synaptic Pharmaceutical Corporation, priority 1997, dated 2004)
pEC50, pKi: −log10 of the molar value. Read-outs that look alike come from different tables or passages of the source.

Legend:
[1] = target: T1, human α2c adrenergic receptor (Homo sapiens, UniProt P18825); experiment: α2 agonist activity: inhibition of forskolin-stimulated cAMP synthesis, α2c cells; format: cell-based
T1 construct: The entire coding region of α2c (1383 bp), including 2 bp of 5′ UT and 400 bp of 3′ UT; expressed in transfected cells; host or cells: LM(tk−) cells (L-α2c, ATCC CRL-11181), vector pCEXV-3
T1 sequence (P18825 1-462): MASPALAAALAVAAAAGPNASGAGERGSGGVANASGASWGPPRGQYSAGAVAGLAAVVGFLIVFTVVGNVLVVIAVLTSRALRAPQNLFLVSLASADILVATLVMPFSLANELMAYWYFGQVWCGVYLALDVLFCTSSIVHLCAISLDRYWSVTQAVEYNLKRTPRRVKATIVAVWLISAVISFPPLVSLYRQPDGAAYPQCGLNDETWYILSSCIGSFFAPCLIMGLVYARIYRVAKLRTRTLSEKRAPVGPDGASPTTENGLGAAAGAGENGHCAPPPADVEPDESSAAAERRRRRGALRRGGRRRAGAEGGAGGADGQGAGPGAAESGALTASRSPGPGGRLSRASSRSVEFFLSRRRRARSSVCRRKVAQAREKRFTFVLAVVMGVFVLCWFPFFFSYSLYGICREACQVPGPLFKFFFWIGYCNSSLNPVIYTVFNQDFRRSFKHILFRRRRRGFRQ
Experimental: (§1) Binding and functional assays were performed using stably transfected cells expressing human α adrenergic receptors. Equilibrium competition binding assays were performed with membrane preparations from cultured LM(tk−) cells stably transfected with the cloned human adrenoceptor subtypes except for a21, which was expressed In Y-1 cells, using [^3H]prazosin for α1 receptors and [^3H]rauwolscine for […].
(§2) These cell lines were prepared by transfecting cloned cDNA or cloned genomic DNA or constructs containing both genomic DNA and cDNA encoding the human a adrenergic receptors as described below.
(§3) The agonist activity (expressed as pEC50) was measured as a function of the ability to inhibit the forskolin-stimulated synthesis of cyclic adenosine monophosphate (cAMP). The stably transfected cells were incubated in Ham's F10 with 5 mM theophylline, 10 mM HEPES, 17 mM pargyline, and/or appropriate concentrations of forskolin for 20 min. at 37° C. in 5% CO2. The tested compounds were then added to a final concentration of 0.001 nM to 1 mM and incubated for an additional 15 min. at 37° C. in 5% CO2. The medium was aspirated and the reaction was stopped by the addition of 100 mM HCl. […] The plates were stored at 4° C. for 15 min. and assayed to determine the linear concentration of cAMP. The appropriate dilution was interpolated from the standard curve of cold cAMP. The assessment of cAMP formation was determined by radioimmunoassay (cAMP radioimmunoassay kit; Advanced magnetics, Cambridge, Mass.). Radioactivity was quantified using a Packard COBRA Auto Gamma counter equipped with data reduction software.

[2] = target: T1, human α2c adrenergic receptor; experiment: Equilibrium competition binding, [3H]rauwolscine, cloned human α2c
Experimental: as §1, §2
The insert housing this coding region was a 1.8 kb Ncol/EcoR1 human spleen genomic fragment which was end-blunted by either T4 polymerase or Klenow fragment of DNA polymerase. Stable cell lines were selected as described above.
(§4) The stable cell lines described above were scraped from culture flasks into 5 mL of 5 mM Tris-HCl, […], pH 7.5, and lysed by sonication. The cell lysates were centrifuged at 1,000 rpm for 5 min. at 4° C., and the supernatant was centrifuged at 30,000×g for 20 min. at 4° C. The pellet was suspended in 50 mM Tris-HCl, 1 mM MgCl2, and 0.1% ascorbic acid at pH 7.5. Binding of the α2 antagonist [^3H]rauwolscine (0.5 nM) or the α1 antagonist [^3H]prazosin (0.5 nM) to membrane preparations of LM(tk−) cells was done in a final volume of 0.25 mL and incubated at 37° C. for 20 min. Nonspecific binding was determined in the presence of […]. The reaction was stopped by filtration through GF/B filters using a cell harvester.

[3] = target: T2, human α2a adrenergic receptor (Homo sapiens, UniProt P08913); experiment: α2 agonist activity: inhibition of forskolin-stimulated cAMP synthesis, α2a cells; format: cell-based; settings: for α2a IA (Intrinsic Activity): inhibition of forskolin-stimulated cAMP, cloned human α2a
T2 construct: expressed in transfected cells; host or cells: LM(tk−) cells (L-α2A, ATCC CRL-11180), vector pCEXV-3
T2 sequence (P08913 1-465): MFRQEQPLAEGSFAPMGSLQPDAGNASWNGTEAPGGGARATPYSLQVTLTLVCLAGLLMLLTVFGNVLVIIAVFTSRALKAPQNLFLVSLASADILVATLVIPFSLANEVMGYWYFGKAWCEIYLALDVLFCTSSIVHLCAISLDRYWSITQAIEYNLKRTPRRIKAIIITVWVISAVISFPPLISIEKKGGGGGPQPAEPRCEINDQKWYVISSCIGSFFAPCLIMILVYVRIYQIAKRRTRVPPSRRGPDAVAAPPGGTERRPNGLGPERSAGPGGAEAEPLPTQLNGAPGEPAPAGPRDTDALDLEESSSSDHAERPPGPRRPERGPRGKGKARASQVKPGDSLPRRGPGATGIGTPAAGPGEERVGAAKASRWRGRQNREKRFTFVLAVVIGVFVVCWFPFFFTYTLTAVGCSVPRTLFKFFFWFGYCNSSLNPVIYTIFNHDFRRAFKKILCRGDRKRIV
Experimental: as §1, §2, §3

[4] = target: T3, human α2b adrenergic receptor (Homo sapiens, UniProt P18089); experiment: Equilibrium competition binding, [3H]rauwolscine, cloned human α2b
T3 construct: expressed in transfected cells; host or cells: stably transfected cells, vector pcEXV-3; deposited line L-NGC-α2B (ATCC CRL-10275)
T3 sequence (P18089 1-450): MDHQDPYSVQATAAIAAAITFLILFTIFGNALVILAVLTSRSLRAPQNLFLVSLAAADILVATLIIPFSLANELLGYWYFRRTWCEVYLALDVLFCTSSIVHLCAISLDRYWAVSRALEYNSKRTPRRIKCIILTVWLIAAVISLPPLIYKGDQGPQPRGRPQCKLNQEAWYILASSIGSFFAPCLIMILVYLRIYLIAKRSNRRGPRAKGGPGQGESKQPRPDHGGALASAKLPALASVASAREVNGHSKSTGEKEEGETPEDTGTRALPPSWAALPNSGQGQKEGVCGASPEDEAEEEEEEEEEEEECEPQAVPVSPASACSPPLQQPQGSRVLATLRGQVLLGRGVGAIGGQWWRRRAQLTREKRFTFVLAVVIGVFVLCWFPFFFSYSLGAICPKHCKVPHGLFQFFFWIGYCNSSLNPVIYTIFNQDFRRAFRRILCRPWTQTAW
Experimental: as §1, §2
Stable cell lines were selected as described above.
as §4

[5] = target: T2, human α2a adrenergic receptor; experiment: Equilibrium competition binding, [3H]rauwolscine, cloned human α2a
Experimental: as §1, §2
The insert housing this coding region was a 2.5 kb Kpnl/HindIII human placenta genomic fragment which was end-blunted by either T4 polymerase or Klenow fragment of DNA polymerase. Stable cell lines were obtained by to-transfection with the plasmid pGCcos3neo (plasmid containing the α2a receptor gene) and the plasmid pGCcos3neo (plasmid containing the aminoglycoside transferase gene) into LM(tk−), CHO, and NIH3T3 cells, using calcium phosphate technique. The cells were grown in a controlled environment (37° C., 5% CO2) as monolayers in Dulbecco's modified Eagle's Medium (GIBCO, Grand Island, N.Y.) containing 25 mM glucose and supplemented with 10% bovine calf serum, 100 units/mL penicillin g, and […] streptomycin sulfate.
as §4

[6] = target: T3, human α2b adrenergic receptor; experiment: α2 agonist activity: inhibition of forskolin-stimulated cAMP synthesis, α2b cells; format: cell-based
Experimental: as §1, §2, §3

[7] = inhibition of forskolin-stimulated cAMP, cloned human α2c
[8] = inhibition of forskolin-stimulated cAMP, cloned human α2b

Row | SMILES | α2c IA (Intrinsic Activity) [1, 7] | EC50 ([1]; inhibition of forskolin-stimulated cAMP, cloned human α2c, read-out: α2c pEC50 (converted)) | Ki ([2]; cloned human α2c, membrane preparations, [3H]rauwolscine, read-out: α2c pKi (converted)) | melting point | pEC50 [3] | α2a IA (Intrinsic Activity) [3] | Ki ([4]; cloned human α2b, membrane preparations, [3H]rauwolscine, read-out: α2b pKi (converted)) | Ki ([5]; cloned human α2a, membrane preparations, [3H]rauwolscine, read-out: α2a pKi (converted)) | α2b IA (Intrinsic Activity) [6, 8] | EC50 ([6]; inhibition of forskolin-stimulated cAMP, cloned human α2b, read-out: α2b pEC50 (converted)) | pEC50 [1] | pKi [2] | pKi [4] | pKi [5] | pEC50 [6]
1 | c1cc2c(cc1NC1=NCCN1)CCC2 [Example 1, 2-(5-Indanylamino)-2-imidazoline] | (1.00) | 11.5 nM | 13.8 nM | 41 to 42 °C | 7.83 | (0.48) | 2.88 nM | 1.15 nM | (0.53) | 36.3 nM | – | – | – | – | –
2 | c1nc2c(cc1NC1=NCCN1)CCC2 [Example 21, 2-(2,3-Cyclopentenopyrid-5-yl)amino-2-imidazoline] | (1.00) | – | – | – | 6.41 | (0.58) | – | – | (0.55) | – | 7.79 | 6.34 | 6.78 | 7.30 | 5.71
